Here are results for 23 molecules from patent US20070010537A1, “Fused pyramidine derivative and use thereof” (priority 2004, published 2007).

Counter-ions that a name gives are not always drawn.

The experiment deals with T1, human GnRH receptor (Homo sapiens, UniProt P30968).
T1 construct: expressed in transfected cells; host or cells: CHO (Chinese Hamster Ovary) cells
T1 sequence (P30968 1-328): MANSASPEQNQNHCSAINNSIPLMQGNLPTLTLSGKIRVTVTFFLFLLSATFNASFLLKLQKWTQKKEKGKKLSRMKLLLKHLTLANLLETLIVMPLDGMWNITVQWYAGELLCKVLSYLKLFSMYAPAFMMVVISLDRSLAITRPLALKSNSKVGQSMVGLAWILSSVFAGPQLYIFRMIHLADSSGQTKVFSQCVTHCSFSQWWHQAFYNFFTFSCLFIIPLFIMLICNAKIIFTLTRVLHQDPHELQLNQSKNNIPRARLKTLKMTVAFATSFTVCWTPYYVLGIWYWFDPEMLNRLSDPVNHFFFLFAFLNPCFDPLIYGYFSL
Put plainly: 125I-leuprorelin binding assay, human GnRH receptor CHO cell membrane fraction. The following applies: 10 nM of the testing compound, room temperature for 1 hour, read-out: Binding inhibitory ratio (%). As to the method:
(1) Production of ^125I-Leuprorelin
10 μL of a 3×10^−4 M aqueous solution of leuprorelin and 10 μL of 0.01 mg/mL lactoperoxidase were placed in a tube, and 10 μL (37 MBq) of a Na^125I solution was added thereto. After stirring, 10 μL of 0.001% H2O2 was added to allow the mixture to undergo a reaction at room temperature for 20 minutes. 700 μL of a 0.05% TFA solution was added to stop the reaction, and purification by reversed phase HPLC was carried out. The conditions for HPLC are described below. ^125I-leuprorelin was eluted at a retention time of 26 to 27 minutes.
(2) Production of CHO (Chinese Hamster Ovary) Cell Membrane Fraction Containing Human GnRH Receptor
Human GnRH receptor-expressing CHO cells were cultured until the cells were reached a 90% confluent state in a T-150 flask. The cells were separated using 0.02% EDTA-PBS and were centrifuged at 500×g for 5 minutes. A homogenate buffer for cells (10 mM NaHCO3, 1 mM EDTA, 1 mM PMSF, 0.5 μg/mL Pepstatin, 2 μg/mL Leupeptin, pH 7.4) was added to the cell pellet, and the mixture was homogenized with a Polytron homogenizer. After centrifugation of the homogenate at 4° C. and at 1000×g for 10 minutes, the supernatant was placed in an ultracentrifuge tube and was centrifuged at 4° C. and at 49,300×g for 1 hour to obtain a precipitate of a membrane fraction. This precipitate was suspended in an assay buffer (50 mM Tris-HCl, 150 mM NaCl, 5 mM EDTA, pH 7.4) and then dispensed and stored at −80° C., so that the suspension can be thawed every time it is taken for use.
(3) Measurement of the Binding Inhibitory Rate of 125I-Leuprorelin
A ^125I-leuprorelin binding assay was carried out using 200 μL of an assay buffer containing 10 μg of human GnRH receptor membrane fraction, […] of ^125I-leuprorelin and 10 nM of the testing compound.
The non-specific binding radioactivity was measured in the presence of 1 μM of non-labeled leuprorelin. After leaving the mixture to stand at room temperature for 1 hour, 125I-leuprorelin was captured on a GF/C filter (PerkinElmer, Inc.), and the filter was washed with ice-cold 50 mM Tris-HCl (pH 7.4) using a cell harvester. After drying the filter, a liquid scintillation cocktail for microplate was added, and the membrane-bound radioactivity was measured using a TopCount.
The value of (TB-SB)/(TB-NSB)×100 (SB: radioactivity upon addition of the compound, TB: maximum binding radioactivity, NSB: non-specific binding radioactivity) was calculated to determine the binding inhibitory rate in the presence of 10 nM of each testing material.
As to `O=c1[nH]c2ccccc2c(=O)n1-c1cc(S(=O)(=O)N2CCCc3ccccc32)ccc1Cl` [Example 6(4), 3-(2-Chloro-5-(3,4-dihydroquinolin-1(2H)-ylsulfonyl)phenyl)quinazoline-2,4(1H,3H)-dione], the inhibition at 0.01 µM came to 88.5%.
With `O=c1[nH]c2ccccc2c(=O)n1-c1cc(S(=O)(=O)N2CCCCc3ccccc32)ccc1Cl` [Example 7(5), 3-(2-Chloro-5-(2,3,4,5-tetrahydro-1H-1-benzazepin-1-ylsulfonyl)phenyl)-2,4(1H,3H)-quinazolinedione] the figure was 95.6%; with `O=c1[nH]c2ccccc2c(=O)n1-c1cc(S(=O)(=O)N2CCCOc3ccccc32)ccc1Cl` [Example 7(8), 3-(2-Chloro-5-(3,4-dihydro-1,5-benzoxazepin-5(2H)-ylsulfonyl)phenyl)-2,4(1H,3H)-quinazolinedione], 87.6%; with `O=c1[nH]c2ccccc2c(=O)n1-c1cc(S(=O)(=O)N2CCCc3ccccc32)ccc1F` [Example 7(22), 3-[5-(3,4-Dihydroquinolin-1(2H)-ylsulfonyl)-2-fluorophenyl]quinazoline-2,4(1H,3H)-dione], 75.5%.
Next, `O=c1[nH]c2ccccc2c(=O)n1-c1cc(S(=O)(=O)N2CCCCc3sccc32)ccc1Cl` [Example 7(70), 3-[2-Chloro-5-(5,6,7,8-tetrahydro-4H-thieno[3,2-b]azepin-4-ylsulfonyl)phenyl]quinazoline-2,4(1H,3H)-dione]: 94.5%; `N=c1c2ccccc2[nH]c(=O)n1-c1cc(S(=O)(=O)N2CCCc3ccccc32)ccc1Cl` [Example 8(1), 3-(2-Chloro-5-(3,4-dihydro-1(2H)-quinolinylsulfonyl)phenyl)-4-imino-3,4-dihydro-2(1H)-quinazoline trifluoroacetate]: 91.7%.
Next, `CN(c1ccccc1)S(=O)(=O)c1ccc(Cl)c(-n2c(=O)[nH]c3ccccc3c2=N)c1` [Example 8, 4-Chloro-3-(4-imino-2-oxo-1,4-dihydro-3(2H)-quinazolinyl)-N-methyl-N-phenylbenzenesulfonamide trifluoroacetate]: 84.7%; `CN(C(=O)c1ccc(Cl)c(-n2c(=O)[nH]c3ccccc3c2=O)c1)c1ccccc1` [Example 14, 4-Chloro-3-(2,4-dioxo-1,4-dihydroquinazolin-3(2H)-yl)-N-methyl-N-phenylbenzamide]: 88.9%.
On to `CN(C(=O)c1cc(-n2c(=O)[nH]c3cccc(CO)c3c2=O)c(Cl)s1)c1ccccc1` [Example 21(12), 5-Chloro-4-[5-(hydroxymethyl)-2,4-dioxo-1,4-dihydroquinazolin-3(2H)-yl]-N-methyl-N-phenylthiophene-2-carboxamide], for which the inhibition at 0.01 µM was 84.2%.
With `COC(=O)c1cccc2[nH]c(=O)n(-c3cc(S(=O)(=O)N4CCCc5ccccc54)ccc3Cl)c(=O)c12` [Example 30, Methyl 3-[2-chloro-5-(3,4-dihydroquinolin-1(2H)-ylsulfonyl)phenyl]-2,4-dioxo-1,2,3,4-tetrahydroquinazoline-5-carboxylate] the figure was 98%; with `O=C(O)c1cccc2[nH]c(=O)n(-c3cc(S(=O)(=O)N4CCCc5ccccc54)ccc3Cl)c(=O)c12` [Example 31, 3-[2-Chloro-5-(3,4-dihydroquinolin-1(2H)-ylsulfonyl)phenyl]-2,4-dioxo-1,2,3,4-tetrahydroquinazoline-5-carboxylic acid], 98.2%; with `O=c1[nH]c2cccc(CO)c2c(=O)n1-c1cc(S(=O)(=O)N2CCCc3ccccc32)ccc1Cl` [Example 36, 3-[2-Chloro-5-(3,4-dihydroquinolin-1(2H)-ylsulfonyl)phenyl]-5-(hydroxymethyl)quinazoline-2,4(1H,3H)-dione], 96.7%.
`N#Cc1sc(S(=O)(=O)N2CCCCc3ccccc32)cc1-n1c(=O)[nH]c2ccccc2c1=O` [Example 42, 3-(2,4-Dioxo-1,4-dihydroquinazolin-3(2H)-yl)-5-(2,3,4,5-tetrahydro-1H-1-benzazepin-1-ylsulfonyl)thiophene-2-carbonitrile]: the inhibition at 0.01 µM stood at 77.4%.
As to `CN(C(=O)c1ccc(Cl)c(-n2c(=O)[nH]c3cccc(CO)c3c2=O)c1)c1ccccn1` [Example 46(1), 4-Chloro-3-[5-(hydroxymethyl)-2,4-dioxo-1,4-dihydroquinazolin-3(2H)-yl]-N-methyl-N-pyridin-2-ylbenzamide], the inhibition at 0.01 µM came to 98.2%.
Next, `O=c1[nH]c2cccc(CO)c2c(=O)n1-c1cc(S(=O)(=O)N2CCCCc3ccccc32)sc1Cl` [Example 47, 3-[2-Chloro-5-(2,3,4,5-tetrahydro-1H-1-benzazepin-1-ylsulfonyl)-3-thienyl]-5-(hydroxymethyl)quinazoline-2,4(1H,3H)-dione]: 94.8%; `CN(C(=O)c1cc(-n2c(=O)[nH]c3cccc(CO)c3c2=O)c(Cl)s1)c1ccccc1Cl` [Example 73(1), 5-Chloro-N-(2-chlorophenyl)-4-[5-(hydroxymethyl)-2,4-dioxo-1,4-dihydroquinazolin-3(2H)-yl]-N-methylthiophene-2-carboxamide]: 91.5%; `CN(C(=O)c1cc(-n2c(=O)[nH]c3cccc(CO)c3c2=O)c(Cl)s1)c1cccc(Cl)c1` [Example 73(2), 5-Chloro-N-(3-chlorophenyl)-4-[5-(hydroxymethyl)-2,4-dioxo-1,4-dihydroquinazolin-3(2H)-yl]-N-methylthiophene-2-carboxamide]: 93.8%.
Regarding `Cc1ccccc1N(C)C(=O)c1cc(-n2c(=O)[nH]c3cccc(CO)c3c2=O)c(Cl)s1` [Example 73(4), 5-Chloro-4-[5-(hydroxymethyl)-2,4-dioxo-1,4-dihydroquinazolin-3(2H)-yl]-N-methyl-N-(2-methylphenyl)thiophene-2-carboxamide], the inhibition at 0.01 µM is 82.2%.
Next, `Cc1cccc(N(C)C(=O)c2cc(-n3c(=O)[nH]c4cccc(CO)c4c3=O)c(Cl)s2)c1` [Example 73(5), 5-Chloro-4-[5-(hydroxymethyl)-2,4-dioxo-1,4-dihydroquinazolin-3(2H)-yl]-N-methyl-N-(3-methylphenyl)thiophene-2-carboxamide]: 95.6%; `CN(C(=O)c1cc(-n2c(=O)[nH]c3cccc(CO)c3c2=O)c(Cl)s1)C1CCCCC1` [Example 73, 5-Chloro-N-cyclohexyl-4-[5-(hydroxymethyl)-2,4-dioxo-1,4-dihydroquinazolin-3(2H)-yl]-N-methylthiophene-2-carboxamide]: 79%; `NC(=O)c1cccc2[nH]c(=O)n(-c3cc(S(=O)(=O)N4CCCc5ccccc54)ccc3Cl)c(=O)c12` [Example 85, 3-[2-Chloro-5-(3,4-dihydroquinolin-1(2H)-ylsulfonyl)phenyl]-2,4-dioxo-1,2,3,4-tetrahydroquinazoline-5-carboxamide]: 94%.
Next, `CC(C)CN(C)C(=O)c1cc(-n2c(=O)[nH]c3cccc(CO)c3c2=O)c(Cl)s1` [Example 89, 5-Chloro-4-[5-(hydroxymethyl)-2,4-dioxo-1,4-dihydroquinazolin-3(2H)-yl]-N-isobutyl-N-methylthiophene-2-carboxamide]: 76.2%; `CC(C)(O)c1cccc2[nH]c(=O)n(-c3cc(S(=O)(=O)N4CCCc5ccccc54)ccc3Cl)c(=O)c12` [Example 100(1), 3-[2-Chloro-5-(3,4-dihydroquinolin-1(2H)-ylsulfonyl)phenyl]-5-(1-hydroxy-1-methylethyl)quinazoline-2,4(1H,3H)-dione]: 99.9%.
